In ChEMBL document CHEMBL1201862, “PubChem BioAssay data set” (2004):
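All cell lines were grown in 96-well plates and treated with compound for 48 hours. At the GI50, growth is halved.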 The source made the active and inactive calls. No stated cut-off is given here; in the data, active = GI50 up to about 1.1 µM and inactive = higher.

Experiments:
Assay in all cases: DTP human tumour cell line panel, 48 h
[1] = system: PC-3
[2] = system: SNB-75
[3] = system: SK-MEL-2
[4] = system: RPMI-8226
[5] = system: UO-31
[6] = system: SF-295
[7] = system: SK-MEL-28
[8] = system: TK-10
[9] = system: NCI-H460
[10] = system: A549
[11] = system: LOX IMVI
[12] = system: MDA-N
[13] = system: SF-539
[14] = system: SR
[15] = system: SF-268
[16] = system: NCI-H522
[17] = system: OVCAR-8
[18] = system: SNB-19
[19] = system: U-251
[20] = system: ACHN
[21] = system: MCF7
[22] = system: Malme-3M
[23] = system: M14
[24] = system: KM12
[25] = system: K562
[26] = system: SW-620
[27] = system: Hs-578T
[28] = system: COLO 205
[29] = system: T47D
[30] = system: HCT-116
[31] = system: EKVX
[32] = system: HOP-62
[33] = system: HCT-15
[34] = system: UACC-62
[35] = system: HCC 2998
[36] = system: HL-60
[37] = system: NCI-H226
[38] = system: OVCAR-4
[39] = system: HT-29
[40] = system: BT-549
[41] = system: HOP-92
[42] = system: OVCAR-3
[43] = system: NCI-H23
[44] = system: SN12C
[45] = system: DU-145
[46] = system: OVCAR-5
[47] = system: SK-MEL-5
[48] = system: MOLT-4
[49] = system: 786-0
[50] = system: MDA-MB-435
[51] = system: MDA-MB-231
[52] = system: CAKI-1
[53] = system: RXF 393
[54] = system: CCRF-CEM
[55] = system: IGROV-1
[56] = system: UACC-257
[57] = system: SK-OV-3
[58] = system: A498
[59] = system: NCI/ADR-RES

In the case of `C=C(C)[C@@H](C(=O)OC)N1C(=O)c2ccccc2C1=O`, the GI50 [1] is reported as > 100 µM (inactive), the GI50 [2] is reported as > 100 µM (inactive) and the GI50 [3] is reported as > 100 µM (inactive). The GI50 [4] was > 100 µM (inactive), the GI50 [5] was > 100 µM (inactive) and the GI50 [6] was > 100 µM (inactive). The GI50 [7] was > 100 µM (inactive), the GI50 [8] was > 100 µM (inactive) and the GI50 [9] was > 100 µM (inactive). The GI50 [10] was > 100 µM (inactive), the GI50 [11] was > 100 µM (inactive) and the GI50 [12] was > 100 µM (inactive). For the same compound, the GI50 [13] was > 100 µM (inactive), the GI50 [14] was > 100 µM (inactive) and the GI50 [15] was > 100 µM (inactive). For the same compound, the GI50 [16] was > 100 µM (inactive), the GI50 [17] was > 100 µM (inactive) and the GI50 [18] was > 100 µM (inactive). The GI50 [19] was > 100 µM (inactive), the GI50 [20] was > 100 µM (inactive) and the GI50 [21] was > 100 µM (inactive). The GI50 [22] was > 100 µM (inactive), the GI50 [23] was > 100 µM (inactive) and the GI50 [24] was > 100 µM (inactive). For the same compound, the GI50 [25] was > 100 µM (inactive), the GI50 [26] was > 100 µM (inactive) and the GI50 [27] was > 100 µM (inactive). The GI50 [28] was > 100 µM (inactive), the GI50 [29] was > 100 µM (inactive) and the GI50 [30] was > 100 µM (inactive). For the same compound, the GI50 [31] was > 100 µM (inactive), the GI50 [32] was > 100 µM (inactive) and the GI50 [33] was greater than 100 µM. For the same compound, the GI50 [34] was > 100 µM (inactive), the GI50 [35] was > 100 µM (inactive) and the GI50 [36] was > 100 µM (inactive). For the same compound, the GI50 [37] was > 100 µM (inactive), the GI50 [38] was > 100 µM (inactive) and the GI50 [39] was > 100 µM (inactive). For the same compound, the GI50 [40] was > 100 µM (inactive), the GI50 [41] was > 100 µM (inactive) and the GI50 [42] was > 100 µM (inactive). The GI50 [43] was > 100 µM (inactive), the GI50 [44] was > 100 µM (inactive) and the GI50 [45] was > 100 µM (inactive). For the same compound, the GI50 [46] was > 100 µM (inactive), the GI50 [47] was > 100 µM (inactive) and the GI50 [48] was > 100 µM (inactive). The GI50 [49] was > 100 µM (inactive), the GI50 [50] was > 100 µM (inactive) and the GI50 [51] was > 100 µM (inactive). For the same compound, the GI50 [52] was > 100 µM (inactive), the GI50 [53] was > 100 µM (inactive) and the GI50 [54] was > 100 µM (inactive). The GI50 [55] was > 100 µM (inactive), the GI50 [56] was > 100 µM (inactive) and the GI50 [57] was > 100 µM (inactive). For the same compound, the GI50 [58] was > 100 µM (inactive) and the GI50 [59] was > 100 µM (inactive).

`CCCCn1c2c(n(CCCC)c1=S)-c1c(n(CCCC)c(=S)n1CCCC)SSc1c(n(CCCC)c(=S)n1CCCC)-c1c(n(CCCC)c(=S)n1CCCC)SSc1c(n(CCCC)c(=S)n1CCCC)-c1c(n(CCCC)c(=S)n1CCCC)SS2` was tested, and the GI50 [1] was 2.04 µM (inactive), the GI50 [2] was 10.1 µM (inactive) and the GI50 [3] was 10.7 µM (inactive). The GI50 [4] was 1.99 µM (inactive), the GI50 [5] was 6.47 µM (inactive) and the GI50 [6] was 10.4 µM (inactive). For the same compound, the GI50 [7] was 13.6 µM (inactive), the GI50 [8] was > 30.2 µM (inactive) and the GI50 [9] was > 31 µM (inactive). For the same compound, the GI50 [10] was > 50 µM (inactive), the GI50 [11] was 4 µM (inactive) and the GI50 [12] was 7.41 µM (inactive). For the same compound, the GI50 [13] was 4.31 µM (inactive), the GI50 [14] was 1.88 µM (inactive) and the GI50 [15] was 5.24 µM (inactive). The GI50 [16] was 0.78 µM (active), the GI50 [17] was 1.77 µM (inactive) and the GI50 [18] was 11.4 µM (inactive). For the same compound, the GI50 [19] was 2.15 µM (inactive), the GI50 [20] was 2.36 µM (inactive) and the GI50 [21] was 12.8 µM (inactive). For the same compound, the GI50 [22] was 1.57 µM (inactive), the GI50 [23] was 13.4 µM (inactive) and the GI50 [24] was 19.4 µM (inactive). For the same compound, the GI50 [25] was 2.03 µM (inactive), the GI50 [26] was 1.69 µM (inactive) and the GI50 [27] was 3.25 µM (inactive). The GI50 [28] was 2.64 µM (inactive), the GI50 [29] was 1.5 µM (inactive) and the GI50 [30] was 4.72 µM (inactive). The GI50 [31] was 5.37 µM (inactive), the GI50 [32] was 15.2 µM (inactive) and the GI50 [33] was 7.64 µM. For the same compound, the GI50 [34] was 3.37 µM (inactive), the GI50 [35] was 12.6 µM (inactive) and the GI50 [36] was 1.75 µM (inactive). The GI50 [37] was 10 µM (inactive), the GI50 [38] was 1.73 µM (inactive) and the GI50 [39] was 11.6 µM (inactive). The GI50 [40] was 3.55 µM (inactive), the GI50 [41] was 1.65 µM (inactive) and the GI50 [42] was 1.87 µM (inactive). The GI50 [43] was 16.3 µM (inactive), the GI50 [44] was 2.8 µM (inactive) and the GI50 [45] was 29.8 µM (inactive). The GI50 [46] was 9.12 µM (inactive), the GI50 [47] was 12 µM (inactive) and the GI50 [48] was 2.32 µM (inactive). The GI50 [49] was 3.56 µM (inactive), the GI50 [50] was 11.3 µM (inactive) and the GI50 [51] was 2.24 µM (inactive). For the same compound, the GI50 [52] was 10.2 µM (inactive), the GI50 [53] was 2.72 µM (inactive) and the GI50 [54] was 1.19 µM (inactive). The GI50 [55] was 2.43 µM (inactive), the GI50 [56] was 2.98 µM (inactive) and the GI50 [57] was > 29.2 µM (inactive). The GI50 [58] was > 50 µM (inactive) and the GI50 [59] was > 50 µM (inactive).
